Experimental data taken from patent publication US9637477B2, “Therapeutic substituted pyrroles” (Allergan, Inc., priority 2014, dated 2017).

What was measured:
EP2 [1] = target: T1, EP2 (Homo sapiens, UniProt P43116); experiment: EP2 flipr functional assay; type: cell-based
Source text: (§1) US 2007/0129552, incorporated by reference herein in its entirety, describes the methods used to obtain the in vitro data in the table below.

EP2 [2] = target: T1, EP2; experiment: EP2 cAMP assay; type: cell-based
Source text: as §1

EP2 [3] = target: T1, EP2; experiment: EP2 binding (Ki)
Source text: as §1

EP4 [4] = target: T2, EP4 (Homo sapiens, UniProt P35408); experiment: EP4 flipr functional assay; type: cell-based
Source text: as §1

EP4 [5] = target: T2, EP4; experiment: EP4 binding (Ki)
Source text: as §1

T1 sequence (P43116 whole entry): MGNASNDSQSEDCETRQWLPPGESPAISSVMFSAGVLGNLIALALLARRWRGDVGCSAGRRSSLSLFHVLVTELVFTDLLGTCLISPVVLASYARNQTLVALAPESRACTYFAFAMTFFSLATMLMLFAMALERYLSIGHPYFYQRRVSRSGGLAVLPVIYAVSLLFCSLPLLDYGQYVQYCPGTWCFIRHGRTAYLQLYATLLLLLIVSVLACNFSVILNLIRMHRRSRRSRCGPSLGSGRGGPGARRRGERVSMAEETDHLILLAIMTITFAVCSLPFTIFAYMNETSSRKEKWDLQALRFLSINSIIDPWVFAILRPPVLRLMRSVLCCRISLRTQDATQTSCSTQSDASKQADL
T2 sequence (P35408 whole entry): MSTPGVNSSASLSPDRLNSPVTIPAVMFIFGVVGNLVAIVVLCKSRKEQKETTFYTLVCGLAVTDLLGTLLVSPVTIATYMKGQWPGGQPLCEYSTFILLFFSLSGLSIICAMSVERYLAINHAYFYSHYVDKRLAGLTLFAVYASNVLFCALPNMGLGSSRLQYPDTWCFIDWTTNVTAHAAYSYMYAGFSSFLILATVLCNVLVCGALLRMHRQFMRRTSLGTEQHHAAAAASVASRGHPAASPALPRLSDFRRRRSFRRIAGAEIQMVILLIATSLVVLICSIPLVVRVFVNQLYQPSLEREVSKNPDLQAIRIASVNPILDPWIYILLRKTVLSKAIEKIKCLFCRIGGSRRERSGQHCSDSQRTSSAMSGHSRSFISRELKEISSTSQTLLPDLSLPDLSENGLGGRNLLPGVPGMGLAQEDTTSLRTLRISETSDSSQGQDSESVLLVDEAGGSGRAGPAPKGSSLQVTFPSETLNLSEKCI

## CCCCCCc1ccc(-c2cccn2CCCc2ccc(C(=O)O)s2)cc1 [Example 1, 5-(3-(2-(4-hexylphenyl)-1H-pyrrol-1-yl)propyl)thiophene-2-carboxylic acid]
EP2 [1]
  EC50: 998 nM
EP2 [2]
  EC50: 3 nM
EP2 [3]
  Ki: 23 nM
EP4 [4]
  EC50: > 10000 nM
EP4 [5]
  Ki: 2660 nM
